Source: PubChem BioAssay (NCI)
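Briefly, cells in 96-well plates were exposed to five compound concentrations for 48 h, and endpoints were estimated by linear interpolation. TGI denotes the concentration required for complete inhibition of growth.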

Key:
Assay in all cases: NCI tumour cell line growth inhibition, 48 h
[1] = system: KM20L2 colon
[2] = system: KM12 colon
[3] = system: UO-31 renal
[4] = system: A549 NSCLC
[5] = system: MALME-3M melanoma
[6] = system: OVCAR-3 ovarian
[7] = system: SK-MEL-2 melanoma
[8] = system: XF 498 CNS
[9] = system: DLD-1 colon
[10] = system: LXFL 529 NSCLC
[11] = system: RPMI-8226 leukemia
[12] = system: HT29 colon
[13] = system: DMS 114 small cell lung
[14] = system: TK-10 renal
[15] = system: U251 CNS
[16] = system: RXF 393 renal
[17] = system: 786-0 renal
[18] = system: MOLT-4 leukemia
[19] = system: HOP-92 NSCLC
[20] = system: OVCAR-5 ovarian
[21] = system: SK-MEL-5 melanoma
[22] = system: HL-60(TB) leukemia
[23] = system: OVCAR-8 ovarian
[24] = system: NCI-H460 lung
[25] = system: SK-MEL-28 melanoma
[26] = system: EKVX NSCLC
[27] = system: NCI-H23 lung
[28] = system: DMS 273 small cell lung
[29] = system: SN12C renal
[30] = system: SNB-78 CNS
[31] = system: SK-OV-3 ovarian
[32] = system: CAKI-1 renal
[33] = system: SW-620 colon
[34] = system: HCT-15 colon
[35] = system: ACHN renal
[36] = system: SF-295 CNS
[37] = system: M14 melanoma
[38] = system: UACC-257 melanoma
[39] = system: HOP-62 NSCLC
[40] = system: HCC-2998 colon
[41] = system: K-562 leukemia
[42] = system: CCRF-CEM leukemia
[43] = system: SF-268 CNS
[44] = system: HOP-18 NSCLC
[45] = system: RXF-631 renal
[46] = system: NCI-H226 lung
[47] = system: NCI-H522 lung
[48] = system: LOX IMVI melanoma
[49] = system: OVCAR-4 ovarian
[50] = system: COLO 205 colon
[51] = system: SNB-75 CNS
[52] = system: SNB-19 CNS
[53] = system: MCF7 breast
[54] = system: A498 renal
[55] = system: UACC-62 melanoma
[56] = system: SF-539 CNS
[57] = system: IGROV1 ovarian
[58] = system: NCI/ADR-RES ovarian
[59] = system: P388 leukemia
[60] = system: HCT-116 colon
[61] = system: M19-MEL melanoma
[62] = system: SN12K1 renal

Measured: TGI

Cc1ccc(C(=O)CC2(O)C(=O)Nc3c(C)cc(Cl)cc32)cc1 (configuration not stated)
not listed: [53] | [54] | [55] | [56] | [57] | [58] | [59] | [60] | [61] | [62]
> 100 µM: all other assays above

C/C(=C/C(=O)Nc1ccccc1)Nc1onc(C)c1C
not listed: [10] | [14] | [17] | [32] | [35] | [37] | [45]
> 100 µM: all other assays above
